Measurements published in patent US20240246964A1 (Arbutus Biopharma Corporation, priority 2021, published 2024).

Legend:
[1] = target: PD-L1 His protein / PD-1 Fc protein (Homo sapiens (Human), UniProt Q9NZQ7); assay: HTRF Assay (PD-1/PD-L1 interaction); assay type: binding; conditions: PD-L1 His 6 nM, PD-1 Fc 6 nM
[2] = target: human PD-L1 (Homo sapiens (Human), UniProt Q9NZQ7); assay: T cell activation luciferase reporter cell culture system (T Cell Activation Assay); assay type: cell-based; conditions: luciferase reporter assay; PD-L1 aAPC/CHO-K1 cells with PD-1 effector Jurkat T cells
Sequence of human PD-L1 (Q9NZQ7 19-290): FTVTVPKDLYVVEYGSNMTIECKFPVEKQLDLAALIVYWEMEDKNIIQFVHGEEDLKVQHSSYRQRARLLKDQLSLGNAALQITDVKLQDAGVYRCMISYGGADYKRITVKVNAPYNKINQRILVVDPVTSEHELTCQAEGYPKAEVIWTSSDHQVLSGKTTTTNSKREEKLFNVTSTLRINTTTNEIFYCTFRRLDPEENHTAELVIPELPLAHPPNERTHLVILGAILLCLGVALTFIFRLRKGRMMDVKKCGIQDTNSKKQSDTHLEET

Sequence of PD-L1 His protein / PD-1 Fc protein (Q9NZQ7 19-238): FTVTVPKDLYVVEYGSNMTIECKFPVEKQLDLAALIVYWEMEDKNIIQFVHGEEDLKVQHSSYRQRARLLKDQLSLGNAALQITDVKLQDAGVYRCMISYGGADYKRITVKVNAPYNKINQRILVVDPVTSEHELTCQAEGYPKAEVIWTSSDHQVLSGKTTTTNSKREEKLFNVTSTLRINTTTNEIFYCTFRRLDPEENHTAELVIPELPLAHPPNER

| SMILES | IC50 [1] | EC50 [2] |
| --- | --- | --- |
| COc1cc(-c2cncc(-c3cccc(-c4ccc(CNC5CCN(C(C)=O)CC5)c(OC)n4)c3Cl)c2Cl)ccc1CNC1CCN(C(C)=O)CC1 [Compound 641, 1-(4-(((6-(3-(5-(4-(((1-Acetylpiperidin-4-yl)amino)methyl)-3-methoxyphenyl)-4-chloropyridin-3-yl)-2-chlorophenyl)-2-methoxypyridin-3-yl)methyl)amino)piperidin-1-yl)ethan-1-one] | 0.09 nM | 107 nM |
| COc1cc(-c2cncc(-c3cccc(-c4ccc(CN5CC6(CNC(=O)C6)C5)c(OC)n4)c3Cl)c2Cl)ccc1CN1CC2(CNC(=O)C2)C1 [Compound 642, 2-(4-(4-Chloro-5-(2-chloro-3-(6-methoxy-5-((7-oxo-2,6-diazaspiro[3.4]octan-2-yl)methyl)pyridin-2-yl)phenyl)pyridin-3-yl)-2-methoxybenzyl)-2,6-diazaspiro[3.4]octan-7-one] | 0.19 nM | 181 nM |
| COc1nc(-c2cccc(-c3nccc(-c4ccc(CN5CC6(CNC(=O)C6)C5)c(OC)n4)c3Cl)c2Cl)ccc1CNC1CCN(C(C)=O)CC1 [Compound 680, 2-((2′-(3-(5-(((1-Acetylpiperidin-4-yl)amino)methyl)-6-methoxypyridin-2-yl)-2-chlorophenyl)-3′-chloro-6-methoxy-[2,4′-bipyridin]-5-yl)methyl)-2,6-diazaspiro[3.4]octan-7-one] | 0.03 nM | 26.3 nM |
| COc1nc(-c2cccc(-c3nccc(-c4ccc(CN5CC6(CNC(=O)C6)C5)c(OC)n4)c3Cl)c2Cl)ccc1CN1CCC(O)CC1 [Compound 681, 2-((3′-Chloro-2′-(2-chloro-3-(5-((4-hydroxypiperidin-1-yl)methyl)-6-methoxypyridin-2-yl)phenyl)-6-methoxy-[2,4′-bipyridin]-5-yl)methyl)-2,6-diazaspiro[3.4]octan-7-one] | 1.07 nM | 23.4 nM |
| COc1nc(-c2cccc(-c3nccc(-c4ccc(CNC5CCN(C(C)=O)CC5)c(OC)n4)c3Cl)c2Cl)ccc1CN1CC2(CNC(=O)C2)C1 [Compound 682, 2-((6-(3-(5-(((1-Acetylpiperidin-4-yl)amino)methyl)-3′-chloro-6-methoxy-[2,4′-bipyridin]-2′-yl)-2-chlorophenyl)-2-methoxypyridin-3-yl)methyl)-2,6-diazaspiro[3.4]octan-7-one] | 0.17 nM | 24.6 nM |
| COc1cc(-c2ncnc(-c3cccc(NC(=O)c4cn(C)c(=O)n(C)c4=O)c3Cl)c2Cl)ccc1CNC[C@@H]1CCC(=O)N1 [Compound 708, (S)—N-(2-Chloro-3-(5-chloro-6-(3-methoxy-4-((((5-oxopyrrolidin-2-yl)methyl)amino)methyl)phenyl)pyrimidin-4-yl)phenyl)-1,3-dimethyl-2,4-dioxo-1,2,3,4-tetrahydropyrimidine-5-carboxamide] | 0.29 nM | 1320 nM |
| COc1nc(-c2ccnc(-c3cccc(NC(=O)c4cn(C)c(=O)n(C)c4=O)c3Cl)c2Cl)ccc1CNC1CCN(C(C)=O)CC1 [Compound 721, N-(3-(5-(((1-Acetylpiperidin-4-yl)amino)methyl)-3′-chloro-6-methoxy-[2,4′-bipyridin]-2′-yl)-2-chlorophenyl)-1,3-dimethyl-2,4-dioxo-1,2,3,4-tetrahydropyrimidine-5-carboxamide] | 0.7 nM | 1320 nM |
| COc1nc(-c2ccnc(-c3cccc(NC(=O)c4cn(C)c(=O)n(C)c4=O)c3Cl)c2Cl)ccc1CN1CC2(C1)CN(C(C)=O)C2 [Compound 731, N-(3-(5-((6-Acetyl-2,6-diazaspiro[3.3]heptan-2-yl)methyl)-3′-chloro-6-methoxy-[2,4′-bipyridin]-2′-yl)-2-chlorophenyl)-1,3-dimethyl-2,4-dioxo-1,2,3,4-tetrahydropyrimidine-5-carboxamide] | 0.9 nM | 1170 nM |
| COc1nc(-c2ccnc(-c3cccc(NC(=O)c4cn(C)c(=O)n(C)c4=O)c3Cl)c2Cl)ccc1CNC[C@H](C)O [Compound 745, (S)—N-(2-Chloro-3-(3′-chloro-5-(((2-hydroxypropyl)amino)methyl)-6-methoxy-[2,4′-bipyridin]-2′-yl)phenyl)-1,3-dimethyl-2,4-dioxo-1,2,3,4-tetrahydropyrimidine-5-carboxamide] | 0.31 nM | 372 nM |
| COc1cc(-c2ncnc(-c3cccc(NC(=O)c4cn(C)c(=O)n(C)c4=O)c3Cl)c2Cl)ccc1CNC[C@H](C)O [Compound 746, (S)—N-(2-Chloro-3-(5-chloro-6-(4-(((2-hydroxypropyl)amino)methyl)-3-methoxyphenyl)pyrimidin-4-yl)phenyl)-1,3-dimethyl-2,4-dioxo-1,2,3,4-tetrahydropyrimidine-5-carboxamide] | 1.29 nM | 2080 nM |
| COc1nc(-c2cccc(-c3ccnc(-c4cc(OC)c5nc(CN6CC7(CC(O)C7)C6)nn5c4)c3Cl)c2Cl)ccc1CNC(C)C [Compound 753, 2-((6-(3-Chloro-4-(2-chloro-3-(5-((isopropylamino)methyl)-6-methoxypyridin-2-yl)phenyl)pyridin-2-yl)-8-methoxy-[1,2,4]triazolo[1,5-a]pyridin-2-yl)methyl)-2-azaspiro[3.3]heptan-6-ol] | 0.2 nM | 87 nM |
| COc1nc(-c2cccc(-c3ccnc(-c4cc(OC)c5nc(CN[C@H]6CC[C@H](O)CC6)nn5c4)c3Cl)c2Cl)ccc1CNC(C)C [Compound 758, (1r,4r)-4-(((6-(3-Chloro-4-(2-chloro-3-(5-((isopropylamino)methyl)-6-methoxypyridin-2-yl)phenyl)pyridin-2-yl)-8-methoxy-[1,2,4]triazolo[1,5-a]pyridin-2-yl)methyl)amino)cyclohexanol] | 0.24 nM | 354 nM |
| COc1nc(-c2cccc(-c3ccnc(-c4cc(OC)c5nc(CNC(C)C)nn5c4)c3Cl)c2Cl)ccc1CNC(C)C [Compound 763, N-((6-(2-chloro-3-(3-chloro-2-(2-((isopropylamino)methyl)-8-methoxy-[1,2,4]triazolo[1,5-a]pyridin-6-yl)pyridin-4-yl)phenyl)-2-methoxypyridin-3-yl)methyl)propan-2-amine] | 0.25 nM | 650 nM |
| COc1nc(-c2cccc(-c3ccnc(-c4cc(OC)c5nc(CNC[C@@H]6CCC(=O)N6)nn5c4)c3Cl)c2Cl)ccc1CNC(C)C [Compound 764, (S)-5-((((6-(3-chloro-4-(2-chloro-3-(5-((isopropylamino)methyl)-6-methoxypyridin-2-yl)phenyl)pyridin-2-yl)-8-methoxy-[1,2,4]triazolo[1,5-a]pyridin-2-yl)methyl)amino)methyl)pyrrolidin-2-one] | 0.56 nM | 865 nM |
| COc1nc(-c2cccc(-c3ccnc(-c4cc(OC)c5nc(CNC6CCN(C(C)=O)CC6)nn5c4)c3Cl)c2Cl)ccc1CNC(C)C [Compound 765, 1-(4-(((6-(3-Chloro-4-(2-chloro-3-(5-((isopropylamino)methyl)-6-methoxypyridin-2-yl)phenyl)pyridin-2-yl)-8-methoxy-[1,2,4]triazolo[1,5-a]pyridin-2-yl)methyl)amino)piperidin-1-yl)ethan-1-one] | 0.28 nM | 1280 nM |
| COc1nc(-c2cccc(-c3ccnc(-c4cc(OC)c5nc(CN6CC7(C6)CN(C(C)=O)C7)nn5c4)c3Cl)c2Cl)ccc1CNC(C)C [Compound 767, 1-(6-((6-(3-Chloro-4-(2-chloro-3-(5-((isopropylamino)methyl)-6-methoxypyridin-2-yl)phenyl)pyridin-2-yl)-8-methoxy-[1,2,4]triazolo[1,5-a]pyridin-2-yl)methyl)-2,6-diazaspiro[3.3]heptan-2-yl)ethan-1-one] | 0.24 nM | 92.1 nM |
| COc1nc(-c2cccc(-c3ccnc(-c4cc5c(=O)n(C)c(CN6CC(C)(O)C6)nn5c4)c3Cl)c2Cl)ccc1CN1CC(C)(O)C1 [Example 231, 6-(3-Chloro-4-(2-chloro-3-(5-((3-hydroxy-3-methylazetidin-1-yl)methyl)-6-methoxypyridin-2-yl)phenyl)pyridin-2-yl)-2-((3-hydroxy-3-methylazetidin-1-yl)methyl)-3-methylpyrrolo[2,1-f][1,2,4]triazin-4(3H)-one] | 3.53 nM | 105 nM |
| COc1cc(-c2nccc(-c3cccc(-c4ccc(CNC5CCN(C(C)=O)CC5)c(OC)n4)c3Cl)c2Cl)ccc1CN1CC[C@H](C(=O)O)C1 [Example 239, (S)-1-(4-(4-(3-(5-(((1-acetylpiperidin-4-yl)amino)methyl)-6-methoxypyridin-2-yl)-2-chlorophenyl)-3-chloropyridin-2-yl)-2-methoxybenzyl)pyrrolidine-3-carboxylic acid] | 0.19 nM | 161 nM |
| COc1cc(-c2nccc(-c3cccc(-c4ccc5c(OC)c(CNC6CCN(C(C)=O)CC6)cc(Cl)c5n4)c3Cl)c2Cl)ccc1CNC[C@@H]1CCC(=O)N1 [Example 241, (S)-5-(((4-(4-(3-(6-(((1-Acetylpiperidin-4-yl)amino)methyl)-8-chloro-5-methoxyquinolin-2-yl)-2-chlorophenyl)-3-chloropyridin-2-yl)-2-methoxybenzyl)amino)methyl)pyrrolidin-2-one] | 14.3 nM | ≥ 10000 nM |
| COc1nc(-c2cccc(-c3ccnc(-c4ccc5c(CN(C)CCO)nn(C)c5c4)c3Cl)c2Cl)ccc1CNC[C@@H]1CCC(=O)N1 [Example 247, (S)-5-((((6-(2-Chloro-3-(3-chloro-2-(3-(((2-hydroxyethyl)(methyl)amino)methyl)-1-methyl-1H-indazol-6-yl)pyridin-4-yl)phenyl)-2-methoxypyridin-3-yl)methyl)amino)methyl)pyrrolidin-2-one] | 6.74 nM | 52.4 nM |
| COc1nc(-c2ccnc(-c3cccc4c3CC[C@@H]4Oc3nc(OC)c(CNC4CCN(C(C)=O)CC4)cc3C(F)(F)F)c2Cl)ccc1CNC1CCN(C(C)=O)CC1 [Example 254, (S)-1-(4-(((6-((4-(5-(((1-Acetylpiperidin-4-yl)amino)methyl)-3′-chloro-6-methoxy-[2,4′-bipyridin]-2′-yl)-2,3-dihydro-1H-inden-1-yl)oxy)-2-methoxy-5-(trifluoromethyl)pyridin-3-yl)methyl)amino)piperidin-1-yl)ethan-1-one] | 94.3 nM | 148 nM |
